In patent publication US7208597B2, “Pyridyl-triazine derivatives as microbiocidal active substances” (Ciba Specialty Chemicals Corporation, priority 2002, dated 2007):

How the values were obtained:
Type in all cases: cell-based
[1] = system: Staphylococcus aureus ATCC 6538; experiment: MIC, agar incorporation test; details: ATCC6538, 24 hours at 37° C.
Description: (§1) Determination of the Minimum Inhibitory Concentration (MIC) in the Agar Incorporation Test (MIC Test) [table] The plates are incubated at 37° C. for 24 hours (A. niger at 28° C. for 3 days) and then the highest dilution (lowest concentration) of the test substance at which growth is just no longer discernible (corresponds to the MIC) is determined.

[2] = system: biofilm of a defined mixed culture of various gram+ and gram− oral micro-organisms and a yeast (Candida albicans); experiment: Activity in the biofilm model (supragingival plaque on hydroxyapatite discs)
Excerpt: Testing the Activity of 2-tert-butyl-4-n-octylamino-6-pyrid-2-yl-1,3,5-triazine (140) in the Biofilm Model Principle: See Guggenheim et al. (2001), “Validation of an in vitro biofilm model of supragingival plaque”, J. Dent Res. 80 (1). Hydroxyapatite discs are pre-treated with human saliva and a biofilm of a defined mixed culture of various gram+ and gram− oral micro-organisms (Streptococci, Actinomyces sp., Veillonella & Fusobacterium sp. and others) and a yeast (Candida albicans) is allowed to grow on the hydroxyapatite. Over the course of the test, which lasts a total of 4 days, the discs are immersed several times in an application formulation of the substance (0.5% (140)). Finally, the biofilm is harvested and the living cell count is determined.

[3] = system: Actinomyces viscosus ATCC 43146; experiment: Substantivity on hydroxyapatite and growth-inhibiting action; details: discs pre-treated with artificial saliva, 30 minutes in ethanolic solution at 5 ppm; 24 hours at 37° C.; compared to untreated control
Description: Testing the Substantivity of 2-tert-butyl-4-n-octylamino-6-pyrid-2-yl-1,3,5-triazine (140) on Hydroxyapatite and Determination of the Growth-Inhibiting Action Hydroxyapatite discs (diameter 10 mm) are placed in artificial saliva (Deutsche Zahnärztliche Zeitschrift DZZ 5/2002) for 4 hours, rinsed 4 times in NaCl solution and then incubated for 30 minutes in an ethanolic solution of the test substance (140) at 5 ppm. The discs are then transferred to a Nunclon-surface titre plate (12 wells) and incubated at 37° C. for 24 hours in CASO nutrient medium inoculated with Actinomyces viscosus ATCC 43146 (about 10^5/ml).

[4] = system: Proteus vulgaris ATCC 6896; experiment: MIC, agar incorporation test; details: ATCC6896, 24 hours at 37° C.
Description: as §1

[5] = system: Klebsiella pneumoniae ATCC 4352; experiment: MIC, agar incorporation test; details: ATCC4352, 24 hours at 37° C.
Description: as §1

[6] = system: Salmonella choleraesuis ATCC 9184; experiment: MIC, agar incorporation test; details: Salmonella enterica, 24 hours at 37° C.
Description: as §1

[7] = system: Escherichia coli ATCC 10536; experiment: MIC, agar incorporation test; details: ATCC10536, 24 hours at 37° C.
Description: as §1

[8] = system: Aspergillus niger ATCC 6275; experiment: MIC, agar incorporation test; details: ATCC6275, 72 h, 28° C. for 3 days
Description: as §1

[9] = system: Staphylococcus epidermidis ATCC 12228; experiment: MIC, agar incorporation test; details: ATCC12228, 24 hours at 37° C.
Description: as §1

[10] = system: Propionibacterium acnes ATCC 6919; experiment: MIC, agar incorporation test; details: Cutibacterium acnes, ATCC6919, 24 hours at 37° C.
Description: as §1

[11] = system: Candida albicans ATCC 10231; experiment: MIC, agar incorporation test; details: ATCC10231, 24 hours at 37° C.
Description: as §1

[12] = system: Escherichia coli NCTC 8196; experiment: MIC, agar incorporation test; details: NCTC8196, 24 hours at 37° C.
Description: as §1

[13] = system: Corynebacterium xerosis ATCC 373; experiment: MIC, agar incorporation test; details: ATCC373, 24 hours at 37° C.
Description: as §1

[14] = system: C. minutissimum ATCC 23348; experiment: MIC, agar incorporation test; details: Corynebacterium minutissimum, ATCC23348, 24 hours at 37° C.
Description: as §1

[15] = system: Pseudomonas aeruginosa ATCC 15442; experiment: MIC, agar incorporation test; details: ATCC15442, 24 hours at 37° C.
Description: as §1

CCCCCCCCCCCC(=O)Nc1nc(C)nc(-c2ccncc2)n1 [Compound of formula (123)]
MIC [1]: 8 µg/mL

CCCCCCNc1nc(C)nc(-c2ccccn2)n1 [Compound of formula (131)]
MIC [1]: 30 µg/mL

CCCCCCNc1nc(C)nc(-c2cccnc2)n1 [Compound of formula (135)]
MIC [1]: 60 µg/mL

CCCCCCCCNc1nc(-c2ccccn2)nc(C(C)(C)C)n1 [Compound of formula (140), 2-tert-butyl-4-n-octylamino-6-pyrid-2-yl-1,3,5-triazine]
action on microbial count of the biofilm (in words) ([2]; compared to placebo formulation and control containing 10% ethanol): clear reduction in the microbial count
living cell count of biofilm (Mean) ([2]; hydroxyapatite discs pre-treated with human saliva, 4 days, discs immersed several times in application formulation (0.5% (140))): 1.1 × 10^5 CPU/disc
inhibition of the growth of Actinomyces viscosus following adsorption onto hydroxyapatite discs [3]: inhibition of the growth
MIC [4]: > 120 µg/mL
MIC [5]: 120 µg/mL
MIC [6]: 120 µg/mL
MIC [7]: 60 µg/mL
MIC [8]: > 120 µg/mL
MIC [1]: 0.94 µg/mL
MIC [9]: 120 µg/mL
MIC [10]: 0.94 µg/mL
MIC [11]: > 120 µg/mL
MIC [12]: 60 µg/mL
MIC [13]: 0.94 µg/mL
MIC [14]: 0.94 µg/mL
MIC [15]: > 120 µg/mL
